Laboratory results: PubChem BioAssay (NCI)
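Briefly, cells in 96-well plates were exposed to five compound concentrations for 48 h, and endpoints were estimated by linear interpolation. TGI: concentration producing complete growth inhibition.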

Columns and labels:
Assay in all cases: NCI-60 cell line screen, 48 h
786-0 renal = test system: 786-0 renal
A498 renal = test system: A498 renal
A549 NSCLC = test system: A549 NSCLC
ACHN renal = test system: ACHN renal
BT-549 breast = test system: BT-549 breast
CAKI-1 renal = test system: CAKI-1 renal
COLO 205 colon = test system: COLO 205 colon
DU-145 prostate = test system: DU-145 prostate
EKVX NSCLC = test system: EKVX NSCLC
HCC-2998 colon = test system: HCC-2998 colon
HCT-116 colon = test system: HCT-116 colon
HCT-15 colon = test system: HCT-15 colon
HOP-62 NSCLC = test system: HOP-62 NSCLC
HOP-92 NSCLC = test system: HOP-92 NSCLC
HS 578T breast = test system: HS 578T breast
HT29 colon = test system: HT29 colon
IGROV1 ovarian = test system: IGROV1 ovarian
K-562 leukemia = test system: K-562 leukemia
KM12 colon = test system: KM12 colon
LOX IMVI melanoma = test system: LOX IMVI melanoma
M14 melanoma = test system: M14 melanoma
MALME-3M melanoma = test system: MALME-3M melanoma
MCF7 breast = test system: MCF7 breast
MDA-MB-231 breast = test system: MDA-MB-231 breast
MDA-MB-435 = test system: MDA-MB-435
MDA-N = test system: MDA-N
MOLT-4 leukemia = test system: MOLT-4 leukemia
NCI-H226 lung = test system: NCI-H226 lung
NCI-H23 lung = test system: NCI-H23 lung
NCI-H460 lung = test system: NCI-H460 lung
NCI-H522 lung = test system: NCI-H522 lung
NCI/ADR-RES ovarian = test system: NCI/ADR-RES ovarian
OVCAR-3 ovarian = test system: OVCAR-3 ovarian
OVCAR-4 ovarian = test system: OVCAR-4 ovarian
OVCAR-5 ovarian = test system: OVCAR-5 ovarian
OVCAR-8 ovarian = test system: OVCAR-8 ovarian
PC-3 prostate = test system: PC-3 prostate
RPMI-8226 leukemia = test system: RPMI-8226 leukemia
RXF 393 renal = test system: RXF 393 renal
SF-268 CNS = test system: SF-268 CNS
SF-295 CNS = test system: SF-295 CNS
SF-539 CNS = test system: SF-539 CNS
SK-MEL-2 melanoma = test system: SK-MEL-2 melanoma
SK-MEL-28 melanoma = test system: SK-MEL-28 melanoma
SK-MEL-5 melanoma = test system: SK-MEL-5 melanoma
SK-OV-3 ovarian = test system: SK-OV-3 ovarian
SN12C renal = test system: SN12C renal
SNB-19 CNS = test system: SNB-19 CNS
SNB-75 CNS = test system: SNB-75 CNS
SR leukemia = test system: SR leukemia
SW-620 colon = test system: SW-620 colon
T-47D breast = test system: T-47D breast
TK-10 renal = test system: TK-10 renal
U251 CNS = test system: U251 CNS
UACC-257 melanoma = test system: UACC-257 melanoma
UACC-62 melanoma = test system: UACC-62 melanoma
UO-31 renal = test system: UO-31 renal

N#CC1(C#N)C2=C(CCCC2)NC(c2ccc(Br)cc2)C1(C#N)C#N (configuration not stated)
TGI (786-0 renal): 3.75 µM | TGI (A498 renal): 37.5 µM | TGI (A549 NSCLC): 30.9 µM | TGI (ACHN renal): 3.88 µM | TGI (BT-549 breast): 26.9 µM | TGI (CAKI-1 renal): 4.99 µM | TGI (COLO 205 colon): 2.58 µM | TGI (DU-145 prostate): 25.1 µM | TGI (EKVX NSCLC): 25.3 µM | TGI (HCC-2998 colon): 46.4 µM | TGI (HCT-116 colon): 4.15 µM | TGI (HCT-15 colon): 9.85 µM | TGI (HOP-62 NSCLC): 35.7 µM | TGI (HOP-92 NSCLC): 18.9 µM | TGI (HS 578T breast): 44.6 µM | TGI (HT29 colon): 10.1 µM | TGI (IGROV1 ovarian): 9.24 µM | TGI (K-562 leukemia): 12 µM | TGI (KM12 colon): 29.4 µM | TGI (LOX IMVI melanoma): 6.93 µM | TGI (M14 melanoma): 7.04 µM | TGI (MALME-3M melanoma): 3.83 µM | TGI (MCF7 breast): 19.9 µM | TGI (MDA-MB-231 breast): 23.9 µM | TGI (MDA-MB-435): 9.05 µM | TGI (MDA-N): 14 µM | TGI (MOLT-4 leukemia): 15.7 µM | TGI (NCI-H226 lung): 39 µM | TGI (NCI-H23 lung): 30.3 µM | TGI (NCI-H460 lung): 63.6 µM | TGI (NCI-H522 lung): 3.06 µM | TGI (NCI/ADR-RES ovarian): > 100 µM | TGI (OVCAR-3 ovarian): 18.2 µM | TGI (OVCAR-4 ovarian): 20.7 µM | TGI (OVCAR-5 ovarian): 24.9 µM | TGI (OVCAR-8 ovarian): 11.5 µM | TGI (PC-3 prostate): 26.8 µM | TGI (RPMI-8226 leukemia): 15.8 µM | TGI (RXF 393 renal): 6.15 µM | TGI (SF-268 CNS): 24.7 µM | TGI (SF-295 CNS): 56.5 µM | TGI (SF-539 CNS): 31.6 µM | TGI (SK-MEL-2 melanoma): 34.1 µM | TGI (SK-MEL-28 melanoma): 25.9 µM | TGI (SK-MEL-5 melanoma): 28.8 µM | TGI (SK-OV-3 ovarian): > 56.4 µM | TGI (SN12C renal): 7.06 µM | TGI (SNB-19 CNS): 30.1 µM | TGI (SNB-75 CNS): 30.8 µM | TGI (SR leukemia): 5.56 µM | TGI (SW-620 colon): 2.88 µM | TGI (T-47D breast): 5.41 µM | TGI (TK-10 renal): 16 µM | TGI (U251 CNS): 26.8 µM | TGI (UACC-257 melanoma): 11.5 µM | TGI (UACC-62 melanoma): 32.4 µM | TGI (UO-31 renal): 3.03 µM
